Reference: patent publication US6340754B1, “Phosphorus containing cyclic nucleotides” (priority 1998, dated 2002)

How the values were obtained:
[1] = tested on: Intact cells (fraction B) of Serratia marcescens; test: Activity assay, fraction B: whole-cell suspension, HPLC detection of substrate and products; format: cell-based, Serratia marcescens strain DSM 30121; settings: 10 mM substrate solution, overnight at 30° C.
Method: (§1) The substrates used for enzyme activity assays are dissolved in phosphate buffer pH 7.0 to the required concentration.
Serratia marcescens strain DSM 30121 is grown for 48 hrs in Petri dishes containing Luria-Bertani [LB] Agar (1% Tryptone [Merck 07213]; 0.5% Yeast Extract [Fluka 70161]; 86 mM NaCl [Fluka 71382]; 50 mM Tris-HCl, pH 7.5 [Merck 8382]; 1.5% Bacto-Agar [Difco 0140-01]) at 30° C. (Memmert Incubator, Haska AG, Bern, Switzerland). One single colony is subsequently used to inoculate 25 ml of LB Broth contained in a 100-ml shake-flask. This culture is then incubated at 30° C. and shaken at 200 rpm (Infors HT Shaker, Infors AG, Bottmingen, Switzerland) for another 48 hrs.
(§2) After incubation, the whole volume of the culture is centrifuged at 9000 rpm for 20 minutes at ca. 4° C. (DuPont Instruments Sorvall® RC-5B Refrigerated Superspeed Centrifuge, Digitana AG, Horgen, Switzerland; rotor SS-34).
The pellet is resuspended in 1 ml of distilled water and 40 μl of this whole-cell suspension (fraction B) are placed in an Eppendorf tube to which 360 μl of a 10 mM solution of the substrate are added. The incubation conditions are the same as for the supernatant fraction. […]
The activity is qualitatively determined by observing the appearance of the substrate and product(s) of the activity assay as peaks on a HPLC profile. […]

[2] = tested on: cell free culture supernatant (fraction A) of Serratia marcescens, cyclic nucleotide phosphodiesterase activity; test: Activity assay, fraction A: cell free culture supernatant, HPLC detection of substrate and products; format: biochemical, Serratia marcescens strain DSM 30121; settings: 40 μl of 100 mM substrate in 400 μl, overnight at 30° C.
Method: as §1
One single colony is subsequently used to inoculate 25 ml of LB Broth contained in a 100-ml shake-flask. This culture is then incubated at 30° C. and shaken at 200 rpm (Infors HT Shaker, Infors AG, Bottmingen, Switzerland) for another 48 hrs.
as §2
The supernatant (fraction A) is recuperated and 360 μl are placed in an Eppendorf tube. Fourty μl of a 100 mM solution of substrate are then added to the reaction mixture and incubated overnight at 30° C.
After 5 minutes of extraction at room temperature, the tubes are centrifugated at 14 000 rpm for 5 minutes (Bench Centrifuge Biofuge 15) and the supernatant transfered to HPLC tubes for analysis.
Blanks are made with the substrate solution being replaced by an equivalent volume of phosphate buffer pH 7.0.
The activity is qualitatively determined by observing the appearance of the substrate and product(s) of the activity assay as peaks on a HPLC profile. […] A peak showing on the assay's chromatogramme at the same or at a very close retention time as that of a standard, and moreover absent from the blank, is considered to be the same compound as the standard with a minimum risk of error.
The solvent system is composed of 10 mm phosphate buffer, pH 4.0 (solvent A) and Methanol (solvent B) and two different gradients are applied depending on whether natural or modified nucleotides are used for the assay:
The HPLC profiles obtained for the activity assays are compared with profiles of standards in order to identify the peaks.

SMILES: COCCO[C@@H]1[C@@H]2OP(=O)(O)OC[C@H]2O[C@H]1n1cnc2c(N)ncnc21 [2′MOE CAMP, 2′-O(2-Methoxyethyl)-adenosine 3′,5′-cyclic-phosphate]
- degradation of added substrate [1]: about 85%
- hydrolysis / degradation of substrate [2]: about 50%

SMILES: Nc1ccn([C@@H]2O[C@@H]3COP(=O)(O)O[C@H]3[C@H]2O)c(=O)n1 [cCMP]
- hydrolysis / degradation of substrate [2]: ca. 10%

SMILES: O=c1[nH]cnc2c1ncn2[C@@H]1O[C@@H]2COP(=O)(O)O[C@H]2[C@H]1O [cIMP]
- hydrolysis / degradation of substrate [2]: 85-89%
